The values that follow come from paper PMC6178282, “Comparative cell biological study of in vitro antitumor and antimetastatic activity on melanoma cells of GnRH-III-containing conjugates modified with short-chain fatty acids” (Beilstein Journal of Organic Chemistry, 2018).

Structures are written as SMILES.

The assay relates to A2058 melanoma cells. Description: Apoptosis assay, Vitabright-48 thiol staining, NucleoCounter NC-250 image cytometer. Type of assay: cell-based, human. Conditions: 10^−5 M, 24 h, NucleoCounter NC-250, average of two parallels ± S.D., control 8.7 ± 0.72. The procedure:
The pro-apoptotic effects of conjugates and Dau at 10^−5 M concentration was studied after 24 h incubation by flow cytometry using FITC-annexin V (Sony Biotechnology, Weybridge, UK) and a novel image cytometer (NucleoCounter® NC-250^TM, ChemoMetec A/S, Lillerød, Denmark) using Vitabright-48™ (ChemoMetec A/S, Lillerød, Denmark), a cell permeable dye that reacts with thiol groups to form a fluorescent product. […]
normalizing the viability of conjugate-treated cells with that of the control cells, and these indices of groups pretreated with inhibitors or DMSO were statistically compared.
The apoptotic effect of conjugates and Dau was determined by a FACSCalibur flow cytometer (Becton Dickinson, San Jose, CA, USA) after staining with annexin V-FITC (Sony Biotechnology, Weybridge, UK) and NucleoCounter® NC-250™ cell analyzer (ChemoMetec A/S, Lillerød, Denmark) using Vitabright-48™, a cell-permeable fluorescent dye (ChemoMetec A/S, Lillerød, Denmark). […]
The cells were dissociated by a TrypLE reagent (Thermo Fisher Scientific, Waltham, MA, USA) composed of recombinant enzyme protecting the cell’s surface proteins and it was followed by a centrifugation and a washing step with PBS. […] Before labeling with annexin V-FITC, the cells were measured by a flow cytometer for controlling the autofluorescence of cells in case of each treatment group. […]

Take `COc1cccc2c1C(=O)c1c(O)c3c(c(O)c1C2=O)C[C@@](O)(C(C)=O)C[C@@H]3O[C@H]1C[C@H](N)[C@H](O)[C@H](C)O1` [daunorubicin]: the “the ratio of apoptotic cells, Vitabright-48™” value was 30.9 ± 0.68 %.
